ChEMBL document CHEMBL1131207, “Discovery and evaluation of a series of 3-acylindole imidazopyridine platelet-activating factor antagonists” (J Med Chem, 1998)
In brackets after ≈: the same amount, converted by molar mass.

Experiments:
[1] = The compound was evaluated for its bioavailability in monkey; type: ADME, organism-based; settings: primates, in vivo
[2] = The compound was evaluated for its bioavailability in rat; type: ADME, organism-based; settings: in vivo
[3] = tested on: Cavia porcellus; test: The compound was evaluated for its PAF-induced vascular permeability in guinea pig when dosed intravenously; type: functional; settings: iv
[4] = tested on: Cavia porcellus; test: The compound was evaluated for its PAF-induced vascular permeability in guinea pig when dosed orally; type: functional; settings: po
[5] = biological target: Platelet-activating factor receptor (Homo sapiens, UniProt P25105); test: The compound was evaluated for its binding affinity against PAF receptor in human platelet
[6] = tested on: Rattus norvegicus; test: The compound was evaluated for its PAF-induced vascular permeability in rat when dosed intravenously; type: functional; settings: iv
[7] = tested on: Rattus norvegicus; test: The compound was evaluated for its PAF-induced vascular permeability in rat when dosed orally; type: functional; settings: po
[8] = The compound was evaluated for its solubility in lactate buffer at pH 3; type: ADME
[9] = The bioavailability in monkey was evaluated; type: ADME, organism-based; settings: primates, in vivo
[10] = The bioavailability in rat was evaluated; type: ADME, organism-based; settings: in vivo
[11] = The solubility in lactate buffer at pH 3 was evaluated; type: ADME
[12] = tested on: Cavia porcellus; test: The compound was evaluated for PAF-induced vascular permeability in guinea pig when dosed intravenously; type: functional; settings: iv
[13] = tested on: Cavia porcellus; test: The compound was evaluated for PAF-induced vascular permeability in guinea pig when dosed orally; type: functional; settings: po
[14] = biological target: Platelet-activating factor receptor (Rattus norvegicus) (UniProt P46002); test: Ability to block the effect of exogenously administered PAF upon intravenous administration in PAF-induced rat skin permeability assay; type: functional, organism-based
[15] = biological target: Platelet-activating factor receptor (Rattus norvegicus) (UniProt P46002); test: Tested in vivo for to block the effect of exogenously administered PAF upon oral administration in PAF-induced rat skin permeability assay; type: functional, organism-based

Sequence of Platelet-activating factor receptor (Rattus norvegicus) (P46002 whole entry): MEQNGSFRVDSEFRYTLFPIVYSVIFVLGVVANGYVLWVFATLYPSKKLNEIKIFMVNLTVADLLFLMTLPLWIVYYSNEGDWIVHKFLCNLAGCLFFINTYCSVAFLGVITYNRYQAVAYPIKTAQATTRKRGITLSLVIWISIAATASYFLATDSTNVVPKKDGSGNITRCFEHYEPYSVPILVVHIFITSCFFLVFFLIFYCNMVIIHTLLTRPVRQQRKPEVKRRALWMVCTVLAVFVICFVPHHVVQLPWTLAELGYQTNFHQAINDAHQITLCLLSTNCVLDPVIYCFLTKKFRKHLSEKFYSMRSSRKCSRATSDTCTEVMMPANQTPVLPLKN
Sequence of Platelet-activating factor receptor (P25105 whole entry): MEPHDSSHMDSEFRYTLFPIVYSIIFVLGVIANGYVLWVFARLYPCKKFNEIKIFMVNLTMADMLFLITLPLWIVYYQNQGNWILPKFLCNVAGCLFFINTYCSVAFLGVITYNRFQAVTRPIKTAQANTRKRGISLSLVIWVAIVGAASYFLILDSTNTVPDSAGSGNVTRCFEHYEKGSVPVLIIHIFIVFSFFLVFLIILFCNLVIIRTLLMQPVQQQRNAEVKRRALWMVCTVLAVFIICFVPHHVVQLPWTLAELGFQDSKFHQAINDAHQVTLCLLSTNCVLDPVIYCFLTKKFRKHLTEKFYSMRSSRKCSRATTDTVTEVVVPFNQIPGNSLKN

Structure (SMILES) | bioavailability [1] [%] | bioavailability [2] [%] | ED50 [3] [mg/kg] | ED50 [4] [mg/kg] | Ki [5] [pM] | ED50 [6] [mg/kg] | ED50 [7] [mg/kg] | solubility [8] [mg/mL] | bioavailability [9] [%] | bioavailability [10] [%] | solubility [11] [mg/mL] | ED50 [12] [mg/kg] | ED50 [13] [mg/kg] | ED50 [14] [mg/kg] | ED50 [15] [mg/kg]
CC(=O)OC[n+]1cccc([C@H]2SCc3c(C(=O)c4cn(C(=O)N(C)C)c5cc(-c6ccc(F)cc6)ccc45)ccn32)c1.[Cl-] | 36 | 46 | 0.09 | 0.08 | 980 | 0.006 | 0.08 |  |  |  |  |  |  |  | 
CCOC(=O)[C@H](CC(C)C)N(C)S(=O)(=O)c1ccc(Cn2c(C)nc3cnccc32)cc1 [LEXIPAFANT] |  |  | 0.027 | 10.3 | 380 | 0.02 | 0.8 | > 20 |  |  |  |  |  |  | 
C#Cc1cccc2c1c(C(=O)c1ccc(Cn3c(C)nc4cnccc43)c(F)c1)cn2C(=O)N(C)C |  |  |  |  | 570 |  |  |  | 56 | 49 | > 20 | 0.016 | 0.29 | 0.003 | 0.094
Cc1nc2cnccc2n1Cc1ccc(C(=O)c2cn(C(=O)N(C)C)c3cc(-c4ccc(F)cc4)ccc23)cc1 |  |  |  |  |  |  | 0.5 | 0.12 (≈ 0.226 mM) |  |  |  |  |  | 0.068 | 
